Test results published in US6897065B1, “Method for maturation of conifer somatic embryos” (Woody Plant Biotech APS, priority 1999, dated 2005).

What was measured:
[1] = system: Abies nordmanniana cell lines; assay: Maturation of Abies nordmanniana cell lines with different carbohydrate sources (shift from maltose to sucrose); format: cell-based; conditions: for development of mature embryos: 45 g/L as sole carbohydrate source during the entire maturation period (treatments A, B)
Description: Except from the carbohydrates, the basic maturation medium was composed as described for the control in example 1. However, PCIB was included in a prior determined optimum concentration and period for each of the tested cell lines. Four treatments with different combinations of carbohydrates were tested during maturation: • A) Maturation on culture medium comprising 45 g/L sucrose as carbohydrate source during the entire maturation period. • B) Maturation on culture medium comprising 45 g/L maltose as carbohydrate source during the entire maturation period. Typical embryo from the treatment is disclosed in the left picture of FIG. 9. • C) Maturation on culture medium with 45 g/L maltose during the first part of the maturation period, followed by a shift to maturation medium comprising 22.5 g/L sucrose and 22.5 g/L maltose during the last two weeks of the maturation period. Typical embryo from the treatment is disclosed in the right picture of FIG. 9. • D) Maturation on culture medium with 45 g/L maltose during the first part of the maturation period, followed by a shift to maturation medium comprising 45 g/L sucrose as carbohydrate source for the last two weeks of the maturation period. Typical embryo from the treatment is disclosed in the center picture of FIG. 9. Results

[2] = system: embryogenic cell lines of Abies nordmanniana; assay: Maturation of the tested established Abies nordmanniana embryogenic cell lines (G.3.8, G.35.8, G.78.14); format: cell-based
From the text: (§1) Three different cell lines of Abies nordmanniana were used in the present study. The tested cell lines have been in continuous culture for several years. The cell line G.3.8 was initiated from an immature zygotic embryo in 1989 on half strength MS medium (Murashige and Skoog, 1962) as described previously (Nørgaard and Krogstrup, 1991), Cell line G.35.8 was initiated from a mature zygotic embryo on SH medium in 1991 (Nørgaard and Krogstrup, 1995), and cell line G.78.14 was initiated in 1993 from an immature zygotic embryo on modified half strength BLG medium (Verhagen and Wann, 1989). From 1996, all cultures were maintained by biweekly subculture onto fresh half strength modified BLG medium and grown at 24+/−1° C. in the dark. Cell lines G.3.8 and G.78.14 proliferated fast on maintenance medium with a doubling time of the weight shorter than 2 weeks. Cell line G.35.8 proliferated relatively slowly with a doubling time of the weight higher than 2 weeks.
(§2) The standard maturation medium (the control) is modified from the half strength BLG proliferation medium mentioned above. […] The choice of these three culture medium components is determined primarily by the conifer species in question. […] Similarly it is known that addition of PEG-4000 improves maturation. Still it may be possible to obtain just as good results with other combinations of these components and also by using other components with equivalent effects.
(§3) In this experiment, the standard maturation medium was modified by excluding PEG and by including one of the following 3 chemicals, that are traditionally expected to affect the endogenous concentration of the naturally occurring auxin IAA or to affect the normal effect of auxin in plant cells: 1) PCIB (auxin-antagonist) in a concentration of 25 or 117 μM, 2) TIBA (auxin transport inhibitor) in a concentration of 5 or 50 μM, 3) phlouroglucinol: (inhibitor of auxin degradation) (see George 1993, page 429 bottom-430) in a concentration of 30 mM. In addition to these modifications the standard maturation medium was modified by: 4) reducing the concentration of boron (precursor of indole acetic acid synthesis) to 10 μM, i.e. 20% of the normal concentration and finally by 5) including 25 μM PCIB in medium with no ABA.
(§4) The cultures were matured in the dark at 24° C.+/−1° C.
Two weeks after the last subculture, 4 grams of embryogenic cells was transferred to a 250 mL Flask (Blue cap) together with a magnet stirrer. 100 mL of liquid proliferation medium was added, and the suspension was stirred for 5 minutes at high speed on a magnet stirrer to obtain a homogenous suspension of cells and cell clumps. The culture was then pre-cultured on a gyrotory shaker (120 rpm) for one week at 24+/−1° C. in the dark. Following the pre-culture, the culture was stirred again on a magnet stirrer at high speed for 5 minutes. The culture was transferred to a 100 mL measuring cylinder and allowed to settle for 30 min. The supernatant was discharged and from the remaining culture aliquots of 1 mL were transferred with a cut pipette tip onto filter paper (Whatmann #2) placed on 25 mL of maturation medium in 10 cm Petri dishes (Nunc, Denmark). The filters containing the maturing somatic cultures were transferred onto fresh medium every 2 weeks.
FIG. 5 discloses maturation of cell line G.78.14. This cell line proliferates rapidly and produces very few normal mature embryos according to prior methods. The cell line was matured for 20 weeks on medium comprising 40 μM ABA and a) 25 μM PCIB, b) 0.4 mM phloroglucinol, or c) reduced concentration of Boron (20% of normal concentration). For control see FIG. 1a or 2a.
FIG. 6 discloses maturation of cell line G.78.14 for 20 weeks on maturation medium comprising 40 μM ABA and a) 2.5 mg/L TIBA (5 μM), or b) 25 mg/L TIBA (50 μM).

[3] = system: Picea sitchensis cell lines G.1.12, G.1.13; assay: Maturation in embryogenic cultures of Picea sitchensis; format: cell-based; conditions: anti-auxin step as for Picea abies
Description: Two cell lines of Picea sitchensis, G.1.12, G.1.13, initiated from cotyledons from mature embryos were used for the present study. The cultures were initiated and pretreated on BMI-S1 medium as above, but with 1000 mg/L casein hydrolysate and 10 μM 2,4-D. Pretreatment, maturation medium and anti-auxin step as for Picea abies.

[4] = system: Picea abies embryogenic cell lines D.2.9, D.4.1, D.7.1; assay: Maturation in embryogenic cultures of Picea abies; format: cell-based
Description: Three embryogenic cell lines, D.2.9, D.4.1, D.7.1, of Picea abies, initiated from immature seeds in 1989 and kept in cryostorage until 1998 as described by Nørgaard et al (1993) were used for the present experiment. The cultures were maintained on semi-solid proliferation medium BMI-S1 (Krogstrup 1986) gelled with 1.8 g/L gelrite by biweekly sub-cultures. Prior to transfer to maturation medium, 4 grams of cell mass from each cell line was weighed off and transferred to 50 ml liquid proliferation medium in a 250 ml Erlenmeyer flask. The flask also contained a sterile magnet.
To disintegrate the cultures they were stirred for 5 minutes using a magnet stirrer. Then the flasks were shaken for 15 minutes on a rotary shaker at 175 rpm. The medium with suspended cell aggregates were subsequently poured into a 100 ml measuring cylinder and allowed to settle for 30 minutes. The supernatant was discarded and aliquots of 1 ml of cells were plated on sterile Whatman #54 paper discs placed an the various maturation media. Three replicate dishes were made for each combination of cell line and treatment.
Five maturation protocols were tested. • A: Maturation on BMG-1 medium (Krogstrup et al 1988) modified by increasing the ABA concentration to 40 μM. • B: As A, but from week 2 to week 4 maturation on culture medium comprising 2.5 μM PCIB and 40 μM ABA. • C: As A, but from week 2 to week 4 maturation on culture medium comprising 5.0 μM PCIB and 40 μM ABA. • D: Maturation on medium comprising 2.5 μM PCIB and 40 μM ABA. • E: Maturation an medium comprising 5.0 μM PCIB and 40 μM ABA. Results

[5] = system: Abies nordmanniana cell line G.3.8; assay: Maturation of established Abies nordmanniana cell line G.3.8 (fast proliferating); format: cell-based
From the text: as §1, §2, §3, §4
Two weeks after the last subculture, 4 grams of embryogenic cells was transferred to a 250 mL Flask (Blue cap) together with a magnet stirrer. 100 mL of liquid proliferation medium was added, and the suspension was stirred for 5 minutes at high speed on a magnet stirrer to obtain a homogenous suspension of cells and cell clumps. The culture was then pre-cultured on a gyrotory shaker (120 rpm) for one week at 24+/−1° C. in the dark. […]

[6] = system: newly established Abies nordmanniana embryogenic cell lines; assay: Maturation in newly established Abies nordmanniana embryogenic cultures; format: cell-based; conditions: 8 weeks maturation, 40 μM ABA and 25 μM PCIB from week 2 to 4; cell lines less than 6 months old
Description: Approximately 50 cell lines were initiated from mature seeds in the same way as cell line G.78.14 (Example 1). The cultures were initiated and maintained on modified half strength BLG medium (See example 1). The cultures were less than 6 months old when they were subjected to maturation. The cultures were plated as described in Example 1. The cultures were subjected to two different maturation protocols. • 1) Maturation for 8 weeks on culture medium comprising 40 μM ABA and 5% PEG-4000. • 2) Maturation for as 1) but from week 2 to 4 the cultures were on culture medium comprising 40 μM ABA and 25 μM PCIB.

[7] = system: mature somatic embryos of Abies nordmanniana; assay: Germination of mature somatic embryos; conditions: embryos matured with PCIB in the maturation medium
Description: Well-developed mature embryos were collected for cold treatment after about 20 weeks of maturation. The isolated mature embryos were transferred to a nylon filter that was placed on a foam rubber pad in a high Petri dish. A wetted filter paper was placed in the bottom and in the lid of the Petri dish. The Petri dish was closed, sealed with two rounds of polyethylene film, wrapped with aluminium foil, and then placed at 5° C. in the dark for 4 weeks for cold treatment. After cold treatment, the nylon filter with the mature embryos was transferred to BGM-2 medium (Krogstrup et al, 1988). The BGM-2 medium included 20 g/L sucrose, 10 g/L activated charcoal (Merck 5411), and was galled with 3.5 g/L Phytagel (Gellan gum). The Petri dishes were placed in a growth room at 20° C. with a 16 hour photoperiod. After one week of germination, the nylon net was removed and the embryos were placed in direct contact with the medium. After two weeks of germination, embryos with a root were placed vertically with the root submerged in the medium. Later, the germinating embryos were transferred to soil and placed in a controlled greenhouse.

[8] = system: Abies nordmanniana cell line G.35.8; assay: Maturation of established Abies nordmanniana cell line G.35.8 (slowly proliferating); format: cell-based
From the text: as §1
The standard maturation medium (the control) is modified from the half strength BLG proliferation medium mentioned above. […] The choice of these three culture medium components is determined primarily by the conifer species in question. […] Similarly it is known that addition of PEG-4000 improves maturation. […]

[9] = 25 μM PCIB + 40 μM ABA from week 4 to 8 of the 20 week maturation period
[10] = medium including both ABA and 25 μM PCIB

OC[C@H]1O[C@H](O[C@H]2[C@H](O)[C@@H](O)C(O)O[C@@H]2CO)[C@H](O)[C@@H](O)[C@@H]1O (mixture of isomers) [maltose]
development of mature embryos [1]: high numbers of embryos were produced | average fresh weight of mature embryos ([1]; treatment B: 45 g/L maltose during the entire maturation period): about 50 mg

Oc1cc(O)cc(O)c1 [phloroglucinol]
proliferation during maturation ([2]; phloroglucinol 0.4 mM + 40 μM ABA): proliferation was increased | development of well developed embryos ([2]; phloroglucinol 0.4 mM + 40 μM ABA, 20 weeks): no well developed embryos were found

O=C(O)c1cc(I)cc(I)c1I [TIBA, 2,3,5-tri-iodobenzoic acid]
development of mature embryos ([2]; TIBA 5 and 50 μM + 40 μM ABA, 20 weeks): only very few, and mostly abnormal, mature embryos developed | proliferation on the maturation medium ([2]; TIBA 5 and 50 μM + 40 μM ABA, all tested cell lines): strong reduction of the proliferation

CC(C)(Oc1ccc(Cl)cc1)C(=O)O [PCIB, p-Chlorophenoxyisobutyric acid]
general appearance of the cultures [3]: improved | proliferation during maturation [3]: proliferation was clearly reduced | production of mature somatic embryos ([4]; cell line D.2.9, anti-auxin step (2.5 or 5.0 μM PCIB + 40 μM ABA)): a high number of mature somatic embryos are in turn produced | number of somatic embryos compared with no anti-auxin step ([4]; cell lines D.4.1 and D.7.1 (A-type), 2.5 or 5.0 μM PCIB + 40 μM ABA): produced higher numbers of somatic embryos | proliferation during maturation ([4]; cell lines D.4.1 and D.7.1, 2.5 or 5.0 μM PCIB + 40 μM ABA): reduce the proliferation during maturation | number of well-formed mature embryos ([5]; 25 μM PCIB + 40 μM ABA during the entire 20 week maturation period): about 125 embryos per Petri dish | number of well formed mature embryos [5, 9]: about 40 embryos per Petri dish | proliferation during maturation ([5]; 25 μM PCIB during the entire maturation period): strongly reduced | proliferation during maturation ([5]; 25 μM PCIB from week 4 to 8 of the 20 week maturation period): reduced slightly | proliferation during maturation ([2]; 25 μM PCIB, ABA excluded): proliferation was reduced | development of mature embryos ([2]; 25 μM PCIB, ABA excluded, 20 weeks, all tested cell lines): only few and clearly abnormal and precociously germinating embryos were developed | embryo morphology (abnormality) ([2]; higher concentrations than 25 μM of PCIB): the embryos developed asymmetrically with one major and one minor cotyledon (FIG. 4C) or with only one cotyledon | development of embryos during maturation [2, 10]: high numbers of embryos developed | proliferation during maturation [2, 10]: proliferation was reduced | embryo morphology (abnormality) ([2]; slowly proliferating cell lines, ABA and 25 μM PCIB for longer periods than 4 weeks): embryos with only two symmetric cotyledons developed | production of mature somatic embryos [6]: almost all cell lines produced high numbers of mature somatic embryos | embryos that developed both shoot and root on germination [7]: ~100% | number of well formed mature embryos ([8]; 25 μM PCIB + 40 μM ABA during the entire maturation period): about 15 embryos per Petri dish | number of well formed mature embryos [8, 9]: about 250 embryos per Petri dish

OC[C@H]1O[C@@](CO)(O[C@H]2O[C@H](CO)[C@@H](O)[C@H](O)[C@H]2O)[C@@H](O)[C@@H]1O [sucrose]
development of mature embryos [1]: no well developed mature embryos were produced | size of the mature embryos ([1]; shift from maltose to medium including sucrose during the last two weeks of maturation (treatments C and D)): clear increase in the size of the mature embryos | reduction of the maturation period, treatment D compared to treatment B ([1]; shift to 45 g/L sucrose for the last two weeks): about four | average fresh weight of mature embryos ([1]; treatment D: 45 g/L maltose, shift to 45 g/L sucrose for the last two weeks): about 120 mg per embryo
